Reference: patent US20260262643A1, “HERBICIDAL BENZOXAZINES” (FMC CORPORATION, priority 2022, published 2026)

Experiments:
barnyardgrass [1] = assay: Test C postemergence; format: in vivo, Echinochloa crusgalli; details: 10 days
How it was run: (§1)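 Pre: seeds in loam/sand, directed soil spray. Post: 1–2 leaf plants, 2–10 cm. Cmpd in non-phytotoxic solvent + surfactant. Greenhouse 10 d; visual rating vs untreated, 0 = none, 100 = complete control.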

blackgrass [2] = assay: Test C preemergence; format: in vivo, Alopecurus myosuroides; details: 0 to 100 scale (0 no effect, 100 complete control)
How it was run: as §1

rice = assay: Test D flooded paddy test; format: in vivo, Oryza sativa; details: 250 g ai/ha, applied to paddy water, visual rating after 13 to 14 days, scale 0 to 100 (0 no effect, 100 complete control)
How it was run: (§2)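 Plants grown to the 2-leaf stage; pots flooded to 3 cm above soil at treatment and held at that depth throughout. Test compounds applied directly to the paddy water. After 13 to 14 days in a greenhouse, response was rated visually versus controls on a 0 (no effect) to 100 (complete control) scale.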

soybean [3] = assay: Test C postemergence; format: in vivo, Glycine max; details: 10 days
How it was run: as §1

barnyardgrass [4] = assay: Test C preemergence; format: in vivo, Echinochloa crusgalli; details: 0 to 100 scale (0 no effect, 100 complete control)
How it was run: as §1

kochia [5] = assay: Test C postemergence; format: in vivo, Bassia scoparia; details: 10 days
How it was run: as §1

barnyardgrass [6] = assay: Test D flooded paddy test; format: in vivo, Echinochloa crus-galli; details: 250 g ai/ha, applied to paddy water, visual rating after 13 to 14 days, scale 0 to 100 (0 no effect, 100 complete control)
How it was run: as §2

wheat [7] = assay: Test C preemergence; format: in vivo, Triticum aestivum; details: 0 to 100 scale (0 no effect, 100 complete control)
How it was run: as §1

ragweed [8] = assay: Test C postemergence; format: in vivo, Ambrosia artemisiifolia; details: 10 days
How it was run: as §1

green foxtail [9] = assay: Test C postemergence; format: in vivo, Setaria viridis; details: 10 days
How it was run: as §1

wheat [10] = assay: Test C postemergence; format: in vivo, Triticum aestivum; details: 10 days
How it was run: as §1

green foxtail [11] = assay: Test C preemergence; format: in vivo, Setaria viridis; details: 0 to 100 scale (0 no effect, 100 complete control)
How it was run: as §1

oat, wild [12] = assay: Test C preemergence; format: in vivo, Avena fatua; details: 0 to 100 scale (0 no effect, 100 complete control)
How it was run: as §1

galium = assay: Test C postemergence; format: in vivo, Galium aparine; details: 10 days
How it was run: as §1

pigweed, palmer [13] = assay: Test C postemergence; format: in vivo, Amaranthus palmeri; details: 10 days
How it was run: as §1

corn [14] = assay: Test C preemergence; format: in vivo, Zea mays; details: 0 to 100 scale (0 no effect, 100 complete control)
How it was run: as §1

ducksalad = assay: Test D flooded paddy test; format: in vivo, Heteranthera limosa; details: 250 g ai/ha, applied to paddy water, visual rating after 13 to 14 days, scale 0 to 100 (0 no effect, 100 complete control)
How it was run: as §2

oat, wild [15] = assay: Test C postemergence; format: in vivo, Avena fatua; details: 10 days
How it was run: as §1

soybean [16] = assay: Test C preemergence; format: in vivo, Glycine max; details: 0 to 100 scale (0 no effect, 100 complete control)
How it was run: as §1

kochia [17] = assay: Test C preemergence; format: in vivo, Bassia scoparia; details: 0 to 100 scale (0 no effect, 100 complete control)
How it was run: as §1

ryegrass, Italian [18] = assay: Test C preemergence; format: in vivo, Lolium multiflorum; details: 0 to 100 scale (0 no effect, 100 complete control)
How it was run: as §1

ragweed [19] = assay: Test C preemergence; format: in vivo, Ambrosia artemisiifolia; details: 0 to 100 scale (0 no effect, 100 complete control)
How it was run: as §1

ryegrass, Italian [20] = assay: Test C postemergence; format: in vivo, Lolium multiflorum; details: 10 days
How it was run: as §1

sedge, umbrella = assay: Test D flooded paddy test; format: in vivo, Cyperus difformis; details: 250 g ai/ha, applied to paddy water, visual rating after 13 to 14 days, scale 0 to 100 (0 no effect, 100 complete control)
How it was run: as §2

horseweed = assay: Test C postemergence; format: in vivo, Erigeron canadensis; details: 10 days
How it was run: as §1

pigweed, palmer [21] = assay: Test C preemergence; format: in vivo, Amaranthus palmeri; details: 0 to 100 scale (0 no effect, 100 complete control)
How it was run: as §1

corn [22] = assay: Test C postemergence; format: in vivo, Zea mays; details: 10 days
How it was run: as §1

blackgrass [23] = assay: Test C postemergence; format: in vivo, Alopecurus myosuroides; details: 10 days
How it was run: as §1

[24] = 125 g ai/ha, postemergence, 0 to 100 scale, 0 no effect, 100 complete control
[25] = Postemergence, 500 g ai/ha, visual 0 to 100 scale (0 no effect, 100 complete control)
[26] = Preemergence, 500 g ai/ha, visual rating after 10 days
[27] = Test C, preemergence, 125 g ai/ha

Cc1ccc(-n2cnc(C3(C(F)(F)F)CC3)n2)cc1C(=O)N1C[C@H](C)Oc2c(Cl)cccc21 [Compound 175]
90: Plant response rating, Kochia (kochia [5]; [24]) | Foxtail, Green plant response rating (green foxtail [11]; [27]) | Plant response rating, Galium (galium; [24]) | Plant response rating, Galium (galium; [25]) | Plant response rating, Pigweed, Palmer (pigweed, palmer [13]; [24]) | Plant response rating, Pigweed, Palmer (pigweed, palmer [13]; [25]) | Plant response rating, Soybean (soybean [16]; [26]) | Plant response rating, Ryegrass, Italian (ryegrass, Italian [18]; [26])
70: Barnyardgrass plant response rating (barnyardgrass [4]; [27]) | Plant response rating, Ragweed (ragweed [8]; [25]) | Plant response rating, Foxtail, Green (green foxtail [9]; [25]) | Plant response rating, Ragweed (ragweed [19]; [26])
40: Kochia plant response rating (kochia [17]; [27])
80: Ryegrass, Italian plant response rating (ryegrass, Italian [18]; [27]) | Plant response rating, Horseweed (horseweed; [24])
30: Plant response rating, Foxtail, Green (green foxtail [9]; [24])
10: Plant response rating, Blackgrass (blackgrass [2]; [26]) | Plant response rating, Wheat (wheat [10]; [24]) | Plant response rating, Wheat (wheat [10]; [25]) | Plant response rating, Oat, Wild (oat, wild [15]; [24]) | Plant response rating, Blackgrass (blackgrass [23]; [24])
0: Blackgrass plant response rating (blackgrass [2]; [27]) | Plant response rating, Rice (Flood) (rice) | Plant response rating, Barnyardgrass (Flood) (barnyardgrass [6]) | Corn plant response rating (corn [14]; [27]) | Plant response rating, Ducksalad (Flood) (ducksalad) | Plant response rating, Sedge, Umbrella (Flood) (sedge, umbrella) | Plant response rating, Corn (corn [22]; [24])
50: Plant response rating, Barnyardgrass (barnyardgrass [1]; [25]) | Plant response rating, Oat, Wild (oat, wild [12]; [26]) | Plant response rating, Ryegrass, Italian (ryegrass, Italian [20]; [24]) | Plant response rating, Blackgrass (blackgrass [23]; [25])
60: Soybean plant response rating (soybean [16]; [27]) | Plant response rating, Ryegrass, Italian (ryegrass, Italian [20]; [25]) | Plant response rating, Horseweed (horseweed; [25])
100: Plant response rating, Soybean (soybean [3]; [24]) | Plant response rating, Soybean (soybean [3]; [25]) | Plant response rating, Barnyardgrass (barnyardgrass [4]; [26]) | Plant response rating, Kochia (kochia [5]; [25]) | Plant response rating, Foxtail, Green (green foxtail [11]; [26]) | Plant response rating, Kochia (kochia [17]; [26]) | Plant response rating, Pigweed, Palmer (pigweed, palmer [21]; [26]) | Pigweed, Palmer plant response rating (pigweed, palmer [21]; [27])
20: Plant response rating, Barnyardgrass (barnyardgrass [1]; [24]) | Plant response rating, Wheat (wheat [7]; [26]) | Wheat plant response rating (wheat [7]; [27]) | Plant response rating, Ragweed (ragweed [8]; [24]) | Oat, Wild plant response rating (oat, wild [12]; [27]) | Plant response rating, Corn (corn [14]; [26]) | Plant response rating, Oat, Wild (oat, wild [15]; [25]) | Ragweed plant response rating (ragweed [19]; [27]) | Plant response rating, Corn (corn [22]; [25])
